Reference: patent US20130123107A1, “Use of Adjuvants to Improve Abscisic Acid Performance” (Valent BioSciences Corporation, priority 2007, published 2013)
Structures can show the parent of a compound that is named as a salt.

Test system: tomato leaf transpiration
Experiment: tomato leaf transpiration inhibition bioassay
Format: in vivo, Tomato (variety: Rutgers)
Description: The compositions of the present invention improve ABA effectiveness by incorporating a surfactant, and optionally a nitrogen-containing fertilizer together with an effective amount of the plant growth regulator abscisic acid (S-ABA; ABA; S-(+)-abscisic acid; +-ABA, (+)-(S)-cis, trans-abscisic acid, (+)-(S)-cis,trans-ABA; S-ABA; (S)-5-(1-hydroxy-2,6,6,-trimethyl-4-oxo-2-cyclohexen-1-yl)-3-methyl-(2Z,4E)-pentadienoic acid; CAS registry no, [21293-29-8]). ABA effectiveness may be measured experimentally by quantifying the inhibition of transpiration in tomato leaves. This is a reliable laboratory bioassay of the level of ABA activity.
Preparation of plant specimens for use in the treatment studies of the examples described was carried out as follows. Tomato (variety: Rutgers) seeds were sown in an 18-cell flat filled with Promix PGX (available from Premier Horticulture Inc. Quakertown, Pa.) and grown for 3 weeks to allow for germination and initial growth. Plants were then transplanted into pots (18 cm in diameter and 18 cm in height), filled with Promix BX (available from Premier Horticulture Inc. Quakertown, Pa.), and grown for one or two more weeks before treatment, depending on temperature and available light. Plants received daily irrigation and weekly fertilizer (1 g/L all purpose fertilizer 20-20-20, available from The Scotts Company, Marysville, Ohio).
All treatment solutions were prepared with distilled water, ABA (95% active ingredient) is available from Lomon BioTechnology Co., Ltd. (Shichuan, China). […]
Unless otherwise specified, when a surfactant was employed, it was incorporated into the 250-ppm ABA treatment solution at a concentration of 0.05% to 0.5% (v/v).
ABA solutions and blank treatments were applied to the aerial parts of tomato plant leaves at the rate of 20 mL per 6 plants. Plants were then placed in a transparent chamber with humidity controlled within the range of 40 to 60% relative humidity. Leaf transpiration rates were measured at 1, 2 and 3 days; at 1, 2, 3 and 4 days; or at 1, 2, 3, 4 and 7 days after treatment. Measurements were conducted using a LI-1600 Steady State Porameter (LI-Cor, Lincoln, Nebr.). Each day the transpiration rate of the plants of each treatment group was normalized to the percentage of the transpiration rate of untreated plants (plants sprayed with water only) in order to control for day-to-day variability caused by changes of environmental conditions such as light intensity and temperature. In some cases, data of each plant was averaged over a 3-day period to balance the short term and long-term effect of ABA on tomato leaf transpiration as well as to control for experimental variability.
All experiments were conducted using a randomized complete block experimental design. Data were analyzed by analysis of variance. Duncan's new multiple range tests at α-005 were used for mean separations.

CC1=CC(=O)CC(C)(C)[C@@]1(O)/C=C/C(C)=C\C(=O)O [ABA ammonium salt, Ammonium Salt of (S)-(+)-Abscisic Acid]
Transpiration rate (% of control) (250 ppm ABA or ABA ammonium salt, 1 day after treatment (Table 7)): 68 % of control
Transpiration rate (% of control) (250 ppm ABA or ABA ammonium salt, 2 days after treatment (Table 7)): 73 % of control
Transpiration rate (% of control) (250 ppm ABA or ABA ammonium salt, 3 days after treatment (Table 7)): 84 % of control
Transpiration rate (% of control), Average (250 ppm ABA or ABA ammonium salt, average of days 1-3 after treatment (Table 7)): 75 % of control
Transpiration rate (% of control) (250 ppm ABA or salt at rates equivalent to 250 ppm ABA, 1 day after treatment (Table 10)): 58 % of control
Transpiration rate (% of control) (250 ppm ABA or salt at rates equivalent to 250 ppm ABA, 2 days after treatment (Table 10)): 67 % of control
Transpiration rate (% of control) (250 ppm ABA or salt at rates equivalent to 250 ppm ABA, 3 days after treatment (Table 10)): 78 % of control
Transpiration rate (% of control), Average (250 ppm ABA or salt at rates equivalent to 250 ppm ABA, average of days 1-3 (Table 10)): 68 % of control
